Assay results: patent US20260297081A1, “COMPOUNDS AND METHODS OF TREATING CANCERS” (Cullgen Inc., priority 2023, published 2026)

Tests used:
Assay type in all cases: cell-based
T47D cells = experiment: Anti-proliferation (viability) of ER+ breast cancer T47D cells, 6 days (Table 7, FIG. 2B); conditions: Homo sapiens, 144 h; T47D cells, 6 days, 10-point serial dilution; read-out: GI IC50 in T47D
Experimental: To evaluate anti-proliferation activities of heterobifunctional compounds, NSCLC Calu-1 or ER+ breast cancer T47D cells were treated with selected heterobifunctional compounds following a 10-point serial dilution for 3 or 6 days, respectively.
To verify that heterobifunctional compound-mediated degradation is dependent on the binding to CDK4-cyclin D complex, a negative control compound, CPD-143, which is derived from active heterobifunctional compound CPD-10 was designed. CPD-143 bears the same DDB1 ligand and linker as CPD-10 but with a modified warhead to impair the binding of the control compound to CDK4.

MCF7 cells = experiment: Anti-proliferation (viability) of MCF7 cells (Table 7, FIG. 2B); conditions: Homo sapiens, MCF7, MCF7 cells, 3-6 days, 10-point serial dilution; read-out: GI IC50 in MCF-7
CDK4 = CDK4 (Homo sapiens, UniProt P11802+Q16531); experiment: CDK4 percentage degradation in Calu-1 cells (Table 6); set-up: Cells that express cyclin D1-3 and CDK4/6 proteins were treated with heterobifunctional compounds; endogenous in cells; host or cells: Calu-1; conditions: 16 hours; for inhibition at 0.04 µM: 40 nM; for inhibition at 0.2 µM: 200 nM
Summary of the method: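 Calu-1 cells exposed to heterobifunctional compounds at 40 nM or 200 nM for 16 h. Cyclin D1 and CDK4 levels measured by Western blot of RIPA lysates (BCA-normalised loading), bands quantified by densitometry and expressed as percentage degradation.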

CDK4, sequence (P11802 2-303 limits assumed): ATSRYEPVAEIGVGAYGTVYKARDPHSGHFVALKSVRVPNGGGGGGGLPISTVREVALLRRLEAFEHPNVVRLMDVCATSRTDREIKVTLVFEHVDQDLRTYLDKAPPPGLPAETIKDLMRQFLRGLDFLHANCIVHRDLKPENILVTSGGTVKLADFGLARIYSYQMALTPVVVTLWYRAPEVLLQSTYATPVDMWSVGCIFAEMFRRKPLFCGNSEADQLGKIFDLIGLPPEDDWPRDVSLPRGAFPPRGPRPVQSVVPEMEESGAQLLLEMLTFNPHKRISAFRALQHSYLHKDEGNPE
CDK4, sequence (P24385 whole entry partner): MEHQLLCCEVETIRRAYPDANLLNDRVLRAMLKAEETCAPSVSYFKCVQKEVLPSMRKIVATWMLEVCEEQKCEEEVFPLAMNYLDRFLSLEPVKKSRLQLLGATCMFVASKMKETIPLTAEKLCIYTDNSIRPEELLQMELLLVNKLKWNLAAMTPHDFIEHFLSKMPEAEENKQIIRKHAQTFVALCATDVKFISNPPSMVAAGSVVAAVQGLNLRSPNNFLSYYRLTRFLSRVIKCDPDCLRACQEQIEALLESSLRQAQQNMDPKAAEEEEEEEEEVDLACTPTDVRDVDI
CDK4, sequence (Q16531 2-1140 limits assumed): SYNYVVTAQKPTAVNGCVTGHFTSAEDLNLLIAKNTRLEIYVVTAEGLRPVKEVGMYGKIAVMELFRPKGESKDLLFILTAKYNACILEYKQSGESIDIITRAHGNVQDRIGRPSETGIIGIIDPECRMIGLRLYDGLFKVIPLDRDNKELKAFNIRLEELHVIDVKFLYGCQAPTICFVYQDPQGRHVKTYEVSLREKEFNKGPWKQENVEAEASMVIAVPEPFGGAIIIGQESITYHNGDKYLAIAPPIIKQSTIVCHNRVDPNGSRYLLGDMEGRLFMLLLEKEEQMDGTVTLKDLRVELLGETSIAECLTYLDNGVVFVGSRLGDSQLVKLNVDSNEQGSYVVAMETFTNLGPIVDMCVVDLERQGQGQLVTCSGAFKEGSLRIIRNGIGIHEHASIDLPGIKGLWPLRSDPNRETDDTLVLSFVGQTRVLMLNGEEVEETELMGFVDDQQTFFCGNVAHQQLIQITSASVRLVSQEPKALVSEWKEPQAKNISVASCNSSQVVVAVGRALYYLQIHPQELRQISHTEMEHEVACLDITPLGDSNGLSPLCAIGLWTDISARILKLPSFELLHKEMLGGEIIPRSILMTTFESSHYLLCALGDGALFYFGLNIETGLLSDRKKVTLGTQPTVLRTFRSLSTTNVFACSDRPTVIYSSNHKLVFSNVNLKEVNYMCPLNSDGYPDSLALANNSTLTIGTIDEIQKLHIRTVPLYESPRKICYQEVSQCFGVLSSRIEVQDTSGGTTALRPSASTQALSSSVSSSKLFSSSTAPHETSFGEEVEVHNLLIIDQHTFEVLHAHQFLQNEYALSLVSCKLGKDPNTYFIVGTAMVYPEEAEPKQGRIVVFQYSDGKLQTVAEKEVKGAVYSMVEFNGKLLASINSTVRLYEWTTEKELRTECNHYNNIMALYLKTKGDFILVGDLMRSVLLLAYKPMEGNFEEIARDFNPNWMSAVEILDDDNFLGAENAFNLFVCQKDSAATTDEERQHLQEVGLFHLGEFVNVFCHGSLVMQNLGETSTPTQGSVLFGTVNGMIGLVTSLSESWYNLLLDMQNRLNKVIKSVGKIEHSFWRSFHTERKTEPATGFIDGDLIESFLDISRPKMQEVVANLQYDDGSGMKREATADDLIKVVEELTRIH

SMILES | IC50 (T47D cells) [µM] | IC50 (MCF7 cells) [µM] | inhibition at 0.04 µM (CDK4) [%] | inhibition at 0.2 µM (CDK4) [%]
CNc1ccc(C(=O)Nc2ccc(N(C)C)nn2)c(NC2CCC(NC(=O)CN3CCN(c4ccc(Nc5ncc6c(C)c(C(C)=O)c(=O)n(C7CCCC7)c6n5)nc4)CC3)C2)n1 (centres unmarked) [CPD-219, 2-((3-(2-(4-(6-((6-acetyl-8-cyclopentyl-5-methyl-7-oxo-7,8-dihydropyrido[2,3-d]pyrimidin-2-yl)amino)pyridin-3-yl)piperazin-1-yl)acetamido)cyclopentyl)amino)-N-(6-(dimethylamino)pyridazin-3-yl)-6-(methylamino)nicotinamide] | 0.05 to 0.1 | 0.05 to 0.1 | 50 to 80 | 50 to 80
CNc1ccc(C(=O)Nc2ccc(N(C)C)nn2)c(NC2CCN(C(=O)CCN3CCN(c4ccc(Nc5ncc6c(C)c(C(C)=O)c(=O)n(C7CCCC7)c6n5)nc4)CC3)C2)n1 (centres unmarked) [CPD-218, 2-((1-(3-(4-(6-((6-acetyl-8-cyclopentyl-5-methyl-7-oxo-7,8-dihydropyrido[2,3-d]pyrimidin-2-yl)amino)pyridin-3-yl)piperazin-1-yl)propanoyl)pyrrolidin-3-yl)amino)-N-(6-(dimethylamino)pyridazin-3-yl)-6-(methylamino)nicotinamide] | 0.05 to 0.1 | 0.05 to 0.1 | 50 to 80 | 50 to 80
CNc1ccc(C(=O)Nc2cn(C)c(C3CC3)n2)c(NC2CC(CNC(=O)CN3CCN(c4ccc(Nc5ncc6c(C)c(C(C)=O)c(=O)n(C7CCCC7)c6n5)nc4)CC3)C2)n1 (centres unmarked) [CPD-254, 2-((3-((2-(4-(6-((6-acetyl-8-cyclopentyl-5-methyl-7-oxo-7,8-dihydropyrido[2,3-d]pyrimidin-2-yl)amino)pyridin-3-yl)piperazin-1-yl)acetamido)methyl)cyclobutyl)amino)-N-(2-cyclopropyl-1-methyl-1H-imidazol-4-yl)-6-(methylamino)nicotinamide] | ≥ 0.1 | > 0.1 | – | –
CC(=O)c1c(C)c2cnc(Nc3ccc(N4CCN(CC(=O)NC5CC6(C5)CC(Nc5nc(NC(C)C)ccc5C(=O)Nc5cn(C)c(C7CC7)n5)C6)CC4)cn3)nc2n(C2CCCC2)c1=O (centres unmarked) [CPD-222, 2-((6-(2-(4-(6-((6-acetyl-8-cyclopentyl-5-methyl-7-oxo-7,8-dihydropyrido[2,3-d]pyrimidin-2-yl)amino)pyridin-3-yl)piperazin-1-yl)acetamido)spiro[3.3]heptan-2-yl)amino)-N-(2-cyclopropyl-1-methyl-1H-imidazol-4-yl)-6-(isopropylamino)nicotinamide] | ≤ 0.05 | 0.05 to 0.1 | 50 to 80 | 50 to 80
CC(=O)c1c(C)c2cnc(Nc3ccc(N4CCN(CC(=O)NCC5CC(Nc6nc(C)ccc6C(=O)Nc6cc(C)n(C)n6)C5)CC4)cn3)nc2n(C2CCCC2)c1=O (centres unmarked) [CPD-209, 2-((3-((2-(4-(6-((6-acetyl-8-cyclopentyl-5-methyl-7-oxo-7,8-dihydropyrido[2,3-d]pyrimidin-2-yl)amino)pyridin-3-yl)piperazin-1-yl)acetamido)methyl)cyclobutyl)amino)-N-(1,5-dimethyl-1H-pyrazol-3-yl)-6-methylnicotinamide] | ≥ 0.1 | – | 30 to 50 | 50 to 80
